Active and inactive are the calls of the source.
How the values were obtained:
BJ [1] = assay: BJ-TERT fibroblast viability loss – cell-based, RAS-independent, luminescence, dose response (AID 1933); assay type: functional; conditions: Homo sapiens
BJ [2] = assay: cells; assay type: functional, cell-based; conditions: Homo sapiens
BJ [3] = assay: BJ-TERT-LT-ST fibroblast viability loss – cell-based, RAS-independent, luminescence, dose response (AID 1935); assay type: functional; conditions: Homo sapiens;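 note: BJ fibroblasts immortalized with TERT plus LT and ST oncogenes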
[4] = DRD fibroblast viability loss – cell-based, non-viral oncogenic, luminescence, dose response (AID 1934); assay type: functional; conditions: Homo sapiens
[5] = target: DNA dC->dU-editing enzyme APOBEC-3A (Homo sapiens, UniProt P31941); assay: Dose Response confirmation of small molecule APOBEC3A DNA Deaminase Inhibitors via a fluorescence-based single-stranded DNA deaminase assay. [Related pubchem assays (depositor defined):AID493011, AID493024]; assay type: functional
[6] = target: T1, Short transient receptor potential channel 4 (Mus musculus, UniProt Q9QUQ5); assay: block of DAMGO-driven TRPC4 calcium entry – cell-based, HEK293 TRPC4/mu-opioid, Fluo-4 calcium, dose response (AID 434942); assay type: functional;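 note: potency of inhibitors blocking the TRPC4 calcium response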
T1 sequence (Q9QUQ5 whole entry): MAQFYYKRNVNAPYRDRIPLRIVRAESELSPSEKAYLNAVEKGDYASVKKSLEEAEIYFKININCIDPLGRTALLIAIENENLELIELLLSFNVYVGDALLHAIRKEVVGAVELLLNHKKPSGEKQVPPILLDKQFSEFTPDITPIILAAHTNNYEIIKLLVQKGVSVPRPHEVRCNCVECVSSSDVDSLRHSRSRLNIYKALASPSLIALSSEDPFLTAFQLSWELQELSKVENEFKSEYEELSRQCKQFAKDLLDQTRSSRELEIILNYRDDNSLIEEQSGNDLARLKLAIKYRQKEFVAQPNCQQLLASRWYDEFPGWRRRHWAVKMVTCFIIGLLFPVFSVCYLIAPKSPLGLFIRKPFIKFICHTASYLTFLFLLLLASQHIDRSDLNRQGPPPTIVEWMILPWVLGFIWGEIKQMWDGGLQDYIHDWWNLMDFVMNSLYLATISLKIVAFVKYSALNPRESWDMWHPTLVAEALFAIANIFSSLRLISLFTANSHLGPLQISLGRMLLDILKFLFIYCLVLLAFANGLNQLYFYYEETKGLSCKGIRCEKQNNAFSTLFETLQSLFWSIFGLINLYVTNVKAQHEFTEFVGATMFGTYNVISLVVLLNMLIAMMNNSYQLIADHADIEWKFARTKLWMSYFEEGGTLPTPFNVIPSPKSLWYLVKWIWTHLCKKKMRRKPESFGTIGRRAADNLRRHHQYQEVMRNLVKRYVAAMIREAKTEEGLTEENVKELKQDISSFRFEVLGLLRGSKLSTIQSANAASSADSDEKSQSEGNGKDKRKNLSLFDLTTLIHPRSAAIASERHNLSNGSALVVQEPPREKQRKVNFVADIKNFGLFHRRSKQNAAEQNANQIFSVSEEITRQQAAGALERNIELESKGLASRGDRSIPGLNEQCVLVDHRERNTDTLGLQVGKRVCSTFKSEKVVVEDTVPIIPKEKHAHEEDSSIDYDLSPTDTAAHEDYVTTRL

[7] = target: DNA dC->dU-editing enzyme APOBEC-3G (Homo sapiens, UniProt Q9HC16); assay type: functional;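 note: Dose-response counterscreen measuring inhibition of APOBEC3G DNA deaminase activity, run while confirming APOBEC3A inhibitors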
BJ [8] = assay: growth inhibition of engineered Ras-driven BJ cells – cell-based, alamar blue fluorescence, cherrypicked samples, dose response (AID 2631); assay type: functional; conditions: Homo sapiens;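 note: confirmatory dose-response assay in RAS-dependent BJ fibroblasts engineered with TERT, LT and ST, with cytotoxicity read by fluorescence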
INS1 = assay: INS-1E survival protection against cytokine death – cell-based, luminescence, retest, dose response (AID 449756); assay type: functional; conditions: Rattus norvegicus;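 note: cell death triggered by IL-1 beta plus TNF-alpha plus IFN-gamma mixture; protective hits raise ATP signal compared with cytokine alone wells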
[9] = reduction of Shn3 3'UTR-driven luciferase in osteoblasts – cell-based, Clone20 osteoblasts, firefly luciferase, cherry-picked, dose response (AID 624132); assay type: functional;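 note: firefly luciferase luminescence from reporter carrying the Shn3 3'UTR in osteoblasts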
[10] = loss of viability in HepG2 cells – cell-based, CellTiter-Glo, cherry-picked, cytotoxicity control for Shn3 inhibitor project, dose response (AID 624134); assay type: functional
[11] = non-specific 3'UTR reporter inhibition in Clone20-Shn3RL – cell-based, Renilla luciferase, cherry-picked, counter-screen for Shn3 inhibitor project, dose response (AID 624133); assay type: functional
[12] = target: T2, DNA repair and recombination protein RAD54-like (Homo sapiens, UniProt Q92698); assay: RAD54 Holliday junction migration blockers – biochemical, fluorescence, cherry-picked samples, dose series, confirmation (AID 651657); assay type: functional
T2 sequence (Q92698 whole entry): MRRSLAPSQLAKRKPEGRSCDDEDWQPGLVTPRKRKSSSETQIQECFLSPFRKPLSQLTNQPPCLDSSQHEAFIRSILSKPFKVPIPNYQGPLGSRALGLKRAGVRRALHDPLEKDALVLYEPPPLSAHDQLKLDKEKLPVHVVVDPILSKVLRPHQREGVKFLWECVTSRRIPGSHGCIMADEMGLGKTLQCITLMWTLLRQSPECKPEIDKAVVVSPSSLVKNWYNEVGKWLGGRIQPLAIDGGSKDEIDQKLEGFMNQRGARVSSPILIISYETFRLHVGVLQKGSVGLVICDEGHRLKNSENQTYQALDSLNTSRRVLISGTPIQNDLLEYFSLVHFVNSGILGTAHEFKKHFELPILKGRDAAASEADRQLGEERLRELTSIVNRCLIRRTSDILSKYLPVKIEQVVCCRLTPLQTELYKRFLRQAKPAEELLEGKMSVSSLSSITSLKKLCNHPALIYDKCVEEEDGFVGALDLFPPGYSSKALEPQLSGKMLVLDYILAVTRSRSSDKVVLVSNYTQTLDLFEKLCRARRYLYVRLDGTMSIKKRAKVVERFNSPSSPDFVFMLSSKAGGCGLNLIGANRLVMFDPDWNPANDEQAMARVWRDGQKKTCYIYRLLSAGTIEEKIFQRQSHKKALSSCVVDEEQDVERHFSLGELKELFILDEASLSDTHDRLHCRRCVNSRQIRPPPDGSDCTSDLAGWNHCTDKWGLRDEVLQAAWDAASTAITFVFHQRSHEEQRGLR

[13] = target: T3, DNA repair protein RAD52 homolog (Homo sapiens, UniProt P43351); assay type: functional, biochemical
T3 sequence (P43351 whole entry): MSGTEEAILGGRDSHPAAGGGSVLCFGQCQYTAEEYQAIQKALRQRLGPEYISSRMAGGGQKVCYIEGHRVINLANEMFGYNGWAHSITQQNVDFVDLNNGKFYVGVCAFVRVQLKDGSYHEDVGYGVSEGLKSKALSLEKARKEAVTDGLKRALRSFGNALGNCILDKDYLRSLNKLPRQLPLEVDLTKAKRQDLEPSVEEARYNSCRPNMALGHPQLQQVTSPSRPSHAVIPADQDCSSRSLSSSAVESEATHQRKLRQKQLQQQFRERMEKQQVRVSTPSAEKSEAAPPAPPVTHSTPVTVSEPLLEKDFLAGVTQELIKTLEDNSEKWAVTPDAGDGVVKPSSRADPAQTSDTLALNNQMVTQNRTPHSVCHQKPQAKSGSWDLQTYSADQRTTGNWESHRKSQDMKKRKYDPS

[14] = bead-based luminescence quenchers, dual-tagged ARNT – biochemical, AlphaScreen, cherry-pick, artefact control for ARNT-TACC3 interaction inhibitor project, dose response (AID 651705); assay type: functional;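 note: AlphaScreen bead proximity signal that flags compounds interfering with the detection technology; potency reflects signal decrease which marks the compound as an assay artifact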
[15] = target: T4, Probable nicotinate-nucleotide adenylyltransferase (Staphylococcus aureus (strain N315), UniProt P65502); assay type: functional, Staphylococcus aureus subsp. aureus N315;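 for IC50 Mean: confirmatory dose-response retesting of NadD inhibitor hits first found in an ultra-high-throughput screen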
[16] = target: T4, Probable nicotinate-nucleotide adenylyltransferase; assay type: functional, Staphylococcus aureus subsp. aureus N315; conditions: read-out: IC50_Mean
[17] = target: T5, Small ubiquitin-related modifier 1 (Homo sapiens, UniProt P63165); assay: SUMO1 protein interaction blockers, potency – biochemical, fluorescence polarization, uHTS hits, dose response (AID 624382); assay type: functional; conditions: read-out: IC50_Mean
[18] = target: T5, Small ubiquitin-related modifier 1; assay: SUMO1 protein-protein binding blockers, potency – biochemical, FRET, dose response (AID 624383); assay type: functional; conditions: read-out: IC50_Mean
[19] = system: Streptococcus sp. 'group A'; assay: Streptococcus pyogenes SK(-)GAS viability under kanamycin – luminescence, BacTiterGlo, confirmation, counter-screen for streptokinase expression inhibitor project, dose response (AID 1900); assay type: functional, organism-based
Streptokinase A = target: T6, Streptokinase A (Streptococcus pyogenes serotype M1, UniProt P10520); assay: viability-normalized secreted streptokinase activity reduction – plasminogen activation absorbance, OD405, dose response (AID 1914); assay type: functional, Streptococcus pyogenes M1 GAS;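 note: secreted streptokinase activity via plasminogen activation per viability signal from cell pellet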
T6 sequence (P10520 whole entry): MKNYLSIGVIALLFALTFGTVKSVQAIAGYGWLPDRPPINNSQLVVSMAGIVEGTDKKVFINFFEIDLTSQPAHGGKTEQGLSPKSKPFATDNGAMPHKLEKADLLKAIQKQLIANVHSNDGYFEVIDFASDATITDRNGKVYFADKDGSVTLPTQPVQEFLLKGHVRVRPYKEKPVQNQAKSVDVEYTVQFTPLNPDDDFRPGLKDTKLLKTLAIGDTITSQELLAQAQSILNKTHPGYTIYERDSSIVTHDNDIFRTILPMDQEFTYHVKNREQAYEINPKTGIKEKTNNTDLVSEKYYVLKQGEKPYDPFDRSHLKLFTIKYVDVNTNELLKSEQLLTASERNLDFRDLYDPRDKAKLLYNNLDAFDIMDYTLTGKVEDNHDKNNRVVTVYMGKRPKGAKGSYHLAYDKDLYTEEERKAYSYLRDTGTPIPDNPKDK

Streptococcus = assay: GAS UMAA2166 growth inhibition – luminescence, BacTiterGlo, counter-screen for streptokinase expression inhibitor project, dose response (AID 1915); assay type: functional, organism-based;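 note: potency for reduction of bacterial viability or growth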
[20] = target: T7, Endoribonuclease toxin MazF (Escherichia coli K-12, UniProt P0AE70); assay: activation of MazEF endoribonuclease cleavage – biochemical, fluorescence, single-stranded RNA substrate, uHTS hits, dose response (AID 588481); assay type: functional
T7 sequence (P0AE70 whole entry): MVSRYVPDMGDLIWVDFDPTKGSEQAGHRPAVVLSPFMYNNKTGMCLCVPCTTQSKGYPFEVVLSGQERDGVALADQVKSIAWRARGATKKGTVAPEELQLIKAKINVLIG

[21] = target: T7, Endoribonuclease toxin MazF; assay: substrate-only fluorescence increase artefacts – biochemical, single-stranded RNase substrate, counter-screen for MazEF activator project, dose response (AID 588502); assay type: functional
[22] = target: 26S proteasome non-ATPase regulatory subunit 14 (Homo sapiens, UniProt O00487); assay: inhibition of proteasome subunit RPN11 – biochemical, fluorescence polarization, uHTS hits, confirmation (AID 602368); assay type: functional
[23] = target: 72 kDa type IV collagenase (Homo sapiens, UniProt P08253); assay: Dose Response validation of uHTS RPN11 inhibitor hits using a MMP-2 Fluorescence assay.; assay type: functional
Prothrombin = Prothrombin (Bos taurus, UniProt P00735); assay: thrombin protease inhibitors – biochemical, fluorescence polarization, uHTS hits, dose response (AID 602369); assay type: functional
Vero = assay: viability of Vero cells under compound – cytotoxicity control for flavivirus capping enzyme inhibitors (AID 588742); assay type: functional; conditions: Chlorocebus sabaeus

T5 sequence (P63165 whole entry): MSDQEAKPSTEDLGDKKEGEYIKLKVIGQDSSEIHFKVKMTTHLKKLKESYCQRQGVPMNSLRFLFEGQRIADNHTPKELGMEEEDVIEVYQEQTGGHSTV
T4 sequence (P65502 whole entry): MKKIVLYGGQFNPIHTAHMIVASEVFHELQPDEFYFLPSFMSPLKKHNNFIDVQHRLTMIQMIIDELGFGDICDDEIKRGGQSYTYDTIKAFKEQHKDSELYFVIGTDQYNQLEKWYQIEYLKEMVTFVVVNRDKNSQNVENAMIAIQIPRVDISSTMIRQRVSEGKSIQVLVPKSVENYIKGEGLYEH
Sequence of 26S proteasome non-ATPase regulatory subunit 14 (O00487 whole entry): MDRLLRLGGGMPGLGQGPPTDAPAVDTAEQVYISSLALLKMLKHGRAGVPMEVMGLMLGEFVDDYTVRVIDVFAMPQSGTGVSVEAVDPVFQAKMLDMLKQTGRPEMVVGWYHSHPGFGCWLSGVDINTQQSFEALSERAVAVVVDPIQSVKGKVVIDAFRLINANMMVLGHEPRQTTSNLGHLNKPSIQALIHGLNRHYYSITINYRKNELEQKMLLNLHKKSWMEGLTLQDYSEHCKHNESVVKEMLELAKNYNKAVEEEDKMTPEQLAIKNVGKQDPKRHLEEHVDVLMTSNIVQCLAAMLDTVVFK
Sequence of 72 kDa type IV collagenase (P08253 whole entry): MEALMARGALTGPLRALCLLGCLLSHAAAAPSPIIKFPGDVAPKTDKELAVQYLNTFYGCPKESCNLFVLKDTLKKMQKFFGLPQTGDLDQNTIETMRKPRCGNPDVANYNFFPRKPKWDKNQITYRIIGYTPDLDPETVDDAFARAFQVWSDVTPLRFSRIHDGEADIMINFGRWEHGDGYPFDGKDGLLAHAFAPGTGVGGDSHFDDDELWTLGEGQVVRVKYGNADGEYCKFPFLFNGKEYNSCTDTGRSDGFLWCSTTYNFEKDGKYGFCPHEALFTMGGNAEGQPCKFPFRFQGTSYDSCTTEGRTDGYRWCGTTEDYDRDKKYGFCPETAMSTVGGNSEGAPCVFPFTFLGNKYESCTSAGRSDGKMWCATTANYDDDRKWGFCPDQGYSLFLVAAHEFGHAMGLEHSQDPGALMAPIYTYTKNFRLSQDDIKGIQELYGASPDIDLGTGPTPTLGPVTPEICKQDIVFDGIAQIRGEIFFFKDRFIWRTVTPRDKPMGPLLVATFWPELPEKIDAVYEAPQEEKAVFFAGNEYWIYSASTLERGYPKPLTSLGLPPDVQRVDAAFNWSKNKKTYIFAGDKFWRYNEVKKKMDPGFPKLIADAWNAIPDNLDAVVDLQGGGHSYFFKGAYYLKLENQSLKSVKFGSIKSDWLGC
Sequence of DNA dC->dU-editing enzyme APOBEC-3G (Q9HC16 whole entry): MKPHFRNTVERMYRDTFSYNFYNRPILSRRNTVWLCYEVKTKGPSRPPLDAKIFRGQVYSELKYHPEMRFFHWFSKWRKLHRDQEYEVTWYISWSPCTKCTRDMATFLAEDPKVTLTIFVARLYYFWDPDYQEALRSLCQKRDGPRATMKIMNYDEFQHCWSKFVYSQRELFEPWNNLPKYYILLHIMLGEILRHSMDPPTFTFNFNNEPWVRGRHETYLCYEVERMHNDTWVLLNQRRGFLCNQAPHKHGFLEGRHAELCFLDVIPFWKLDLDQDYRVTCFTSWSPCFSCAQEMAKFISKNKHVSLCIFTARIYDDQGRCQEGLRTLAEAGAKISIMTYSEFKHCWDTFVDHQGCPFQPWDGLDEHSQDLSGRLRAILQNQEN
Sequence of DNA dC->dU-editing enzyme APOBEC-3A (P31941 whole entry): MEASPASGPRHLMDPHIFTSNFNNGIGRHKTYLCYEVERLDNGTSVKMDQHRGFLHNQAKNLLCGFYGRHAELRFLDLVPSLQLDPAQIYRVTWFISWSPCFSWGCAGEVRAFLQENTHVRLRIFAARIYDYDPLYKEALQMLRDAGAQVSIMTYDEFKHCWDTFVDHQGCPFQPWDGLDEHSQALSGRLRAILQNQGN

CN(C)CCCNc1c2ccccc2nc2ccccc12
EC50 (BJ [1]): 1.92 µM (active) | EC50 (BJ [2]): 3.21 µM (active) | EC50 (BJ [3]): 5.56 µM (active) | EC50 [4]: 4.72 µM (active) | IC50 [5]: 18 µM (active) | EC50 [6]: 1.33 µM (active) | IC50 [7]: 58 µM (active) | EC50 (BJ [8]): 0.454 µM (inconclusive) | AC50 (INS1): 0.533 µM (active) | AC50 [9]: 3.22 µM (active) | AC50 [10]: 7.82 µM (active) | AC50 [11]: > 70 µM (inactive) | AC50 [12]: 0.814 µM (active) | AC50 [13]: 0.271 µM (active)

COC(=O)c1ccc(CSc2ccc3nnc(-c4ccccn4)n3n2)o1
AC50 [14]: 98.1 µM (active)

O=C(NCc1ccco1)c1cccc2c1C(=O)c1ccc(/C=C/c3ccccc3)cc1S2(=O)=O
IC50 [15]: 11.5 µM (active) | IC50 [16]: 29.3 µM (active)

COc1cc(CNCc2ccccn2)ccc1OCC(=O)NC(C)(C)C
AC50 [14]: 90.6 µM (active)

COc1cccc2sc(Nc3nc(-c4cc5ccccc5oc4=O)cs3)nc12
IC50 [17]: > 66.6 µM (inactive) | IC50 [18]: 2.42 µM (active)

Cc1cc(C)c2nc(NNC(=O)c3cc(=O)c4ccccc4o3)sc2c1
EC50 [19]: 0.296 µM (active) | EC50 (Streptokinase A): > 150 µM (not active) | EC50 (Streptococcus): 7.16 µM (active) | IC50 [15]: 4.41 µM (active) | IC50 [16]: 28.2 µM (active)

CCCN1C(=O)/C(=C/c2c(NCCCOC(C)C)nc3c(C)cccn3c2=O)SC1=S
EC50 [20]: 16 µM (active) | EC50 [21]: 34.2 µM (inactive) | IC50 [22]: 0.09 µM (active) | IC50 [23]: > 100 µM (inactive) | IC50 (Prothrombin): 0.148 µM (active)

NN=C1c2ccccc2C(=O)C1C(=O)C(c1ccccc1)c1ccccc1 (stereo unspecified)
IC50 [15]: 13.8 µM (active) | IC50 [16]: 25.5 µM (active)

CCCCCCCCCCCC1NC(N)=NC(CCCO)=C1C(=O)OC (stereo unspecified)
IC50 [22]: 19.9 µM (active) | IC50 [23]: 85.8 µM (active) | IC50 (Prothrombin): 42.3 µM (active) | IC50 [17]: > 66.6 µM (inactive) | IC50 [18]: 10.1 µM (active) | AC50 [13]: 7.72 µM (active)

CN1CCC[C@H]1CCNc1ccc2c(=O)c3ccccc3n(C)c2c1
CC50 (Vero): 30.7 µM (active) | AC50 [12]: 5.81 µM (active) | AC50 [13]: 2.17 µM (active)

Reference: ChEMBL document CHEMBL1201862, “PubChem BioAssay data set” (2004)
